The text below walks through data of a melting point compilation (Tetko et al.).

What is called melting point is the temperature of the solid-liquid transition.

Take `CCOC(=O)c1c(Cl)nc2ccccc2c1C`: the melting point was 109 to 111 °C.

With `CC(=O)Cn1c(CCl)nc2sc3c(c2c1=O)CCCC3`, the melting point was 132 to 134 °C.

For the compound `CCCN1C(=O)NC(C)(C)C1=O`, the melting point fell in the range of 109 to 111 °C.

In turn, `CC(C)(C)c1ccc(CCC(=O)O)cc1` yielded a melting point of 105 to 107 °C.

Turning to `O=Cc1cn2cccnc2n1`, the melting point fell in the range of 189 to 191 °C.

In the case of `Cc1cc2ccccc2n1CC(=O)O`, the melting point lay within 184 to 186 °C.

The compound `O=c1c(Cl)c(Cl)cnn1-c1ccc(Cl)cc1` yielded a melting point of 186 to 188 °C.

On to `O=C(O)C1CC2CCCCC2N1C(=O)OCC1c2ccccc2-c2ccccc21` (stereo unspecified), for which the melting point lay in the range of 169 to 171 °C.

As for `CC1(c2cc3ccccc3o2)NC(=O)NC1=O` (stereo unspecified), the melting point fell in the range of 203 to 205 °C.

Turning to `Cc1cc(C(=O)CCl)c(Cl)cc1F`, the melting point was 36 to 38 °C.

Take `COc1ccccc1-c1nn(-c2ccccc2)cc1C(=O)O`: the melting point was 195 to 197 °C.

`COc1cccc(C(N)CC(=O)O)c1` (stereo unspecified) came in with a melting point of 223 to 225 °C.

Consider `CCCCCn1cc(C(=O)O)c2ccccc21`, for which the melting point fell in the range of 97 to 99 °C.

As to `Brc1ccc(NCc2cccs2)cc1`, the melting point was in the range of 49 to 51 °C.

The compound `CCCOc1ccc(N)cc1Cl` gave a melting point of 49 to 51 °C.

Compound `CCc1sc(C(=O)NNC(=O)CCl)cc1C` came in with a melting point of 160 to 162 °C.

For `CC(C)(C)c1ccc2cc(C(=O)O)[nH]c2c1`, the melting point is 157 to 159 °C.

For `CCC(=CC(=O)O)c1ccccc1`, the melting point was 92 to 94 °C.

`CS(=O)(=O)Nc1ccc(N)cc1Cl` had a melting point of 181 to 183 °C.

`O=C(O)c1cc(S(=O)(=O)Nc2ccc(Br)cc2)ccc1Cl` displayed a melting point of 217 to 219 °C.

Turning to `CCOC(=O)C1CCC(=O)NC1` (stereo unspecified), the melting point lay in the range of 66 to 68 °C.

Consider `COC(=O)c1ccc(CNc2ccc3c[nH]nc3c2)cc1`, for which the melting point lay in the range of 152 to 154 °C.

Turning to `O=C(O)c1ccnc(OC2CCCCC2)c1`, the melting point fell in the range of 123 to 125 °C.

On to `Nc1nn2cc(-c3ccccc3)nc2c2ccccc12`, for which the melting point lay in the range of 215 to 217 °C.

As for `CC(=O)NCc1cccc(Br)c1`, the melting point is 75 to 77 °C.

`Cc1ccc(C(C)C)cc1OC(C)C(=O)O` (stereo unspecified) came in with a melting point of 80 to 82 °C.

Consider `Cc1cc(NC(C)C)ccc1C(N)=O`, for which the melting point fell in the range of 132 to 134 °C.

The compound `COC(=O)C(=O)CC(=O)c1ccc2c(c1)OCO2` showed a melting point of 98 to 105 °C.

For the compound `CN(C)C(=O)c1cccc(N)c1`, the melting point lay in the range of 84 to 86 °C.

Regarding `Fc1ccc(-c2nc(CCl)cs2)cc1`, the melting point was in the range of 54 to 56 °C.

The compound `Nc1cccc(-c2ccc3c(c2)OCCO3)n1` had a melting point of 117 to 119 °C.

Take `Nc1cccc2c1C(=O)N(C1CC1)C2=O`: the melting point fell in the range of 159 to 161 °C.

With `ClCc1cccc(Cl)n1`, the melting point was 42 to 44 °C.

`Nc1cnccc1-n1ccnc1` returned a melting point of 134 to 136 °C.

On to `Cc1cc(NC(=O)C(C)Cl)no1` (stereo unspecified), for which the melting point lay within 132 to 134 °C.

In turn, `O=C(O)c1cc(-c2ccco2)nc2cc(F)ccc12` gave a melting point of 272 to 274 °C.

`O=C(O)c1ccc2c(=O)n(-c3ccccc3)c(S)nc2c1` returned a melting point of 368 to 370 °C.

Consider `O=C(Cc1ccccc1Cl)NCCCO`, for which the melting point fell in the range of 77 to 79 °C.

In turn, `CCC(CC)n1nccc1C(=O)O` came in with a melting point of 137 to 139 °C.

In turn, `COC(=O)C(C(=O)OC)c1ccc(C(F)(F)F)cc1[N+](=O)[O-]` registered a melting point of 63 to 65 °C.

As to `Nc1ccc(CCn2nnc(-c3ccccc3)n2)cc1`, the melting point fell in the range of 99 to 101 °C.

Regarding `Nc1nc(Sc2ccccc2)ns1`, the melting point lay within 154 to 156 °C.

For `Nc1ccc(Cl)nc1N`, the melting point fell in the range of 129 to 131 °C.

`CC1CNC(=Nc2cnc3ccccc3c2)S1` (stereo unspecified): the melting point lay in the range of 144 to 146 °C.

Compound `Nc1nccc(-c2cccs2)n1` gave a melting point of 185 to 187 °C.

As to `NS(=O)(=O)c1ccc(Cl)c(NC(=O)CCl)c1`, the melting point fell in the range of 172 to 174 °C.

For `CC(=O)N1CC(C)CNc2ccccc21` (stereo unspecified), the melting point lay within 141 to 143 °C.

Turning to `CC(C)(C)S(=O)(=O)Cc1cccc(N)c1`, the melting point was 175 to 177 °C.

Regarding `O=C(NNC(=O)C(Cl)Cl)c1ccccc1`, the melting point was in the range of 184 to 186 °C.

Compound `CC1CCN(Cc2nc3sc4c(c3c(=O)[nH]2)CCC4)CC1` displayed a melting point of 256 to 258 °C.

`Cc1cc2c(Cl)ncnc2s1` showed a melting point of 79 to 81 °C.

As for `Cc1nc(CNc2ccc(F)cc2)cs1`, the melting point was in the range of 76 to 78 °C.

On to `COc1cc(C=O)ccc1OCc1ccncc1`, for which the melting point lay within 106 to 108 °C.

As to `CNS(=O)(=O)c1ccc(Cl)c(C(=O)O)c1`, the melting point is 171 to 173 °C.

The compound `O=C(O)c1cccc(S(=O)(=O)CC(F)(F)F)c1` registered a melting point of 192 to 194 °C.

Take `NS(=O)(=O)c1cc(Cl)c(Cl)c(C(=O)O)c1`: the melting point was 237 to 239 °C.

With `CS(=O)(=O)Cc1c(C(=O)O)oc2ccccc12`, the melting point lay within 218 to 220 °C.

The compound `Nc1ncnc2c(F)cc(Br)cc12` yielded a melting point of 343 to 345 °C.

In the case of `O=Cc1cn(-c2ccc(F)c(Cl)c2)nn1`, the melting point was in the range of 148 to 150 °C.

In the case of `NC(=NO)c1cnn2cccnc12`, the melting point fell in the range of 177 to 179 °C.

Compound `COc1cc(N2CC(C(=O)O)CC2=O)cc(OC)c1OC` (stereo unspecified) showed a melting point of 143 to 145 °C.

Turning to `C/C(=N\O)c1sc(C)nc1C`, the melting point was 131 to 133 °C.

Compound `O=C(O)c1cc(Cl)c([N+](=O)[O-])[nH]1` came in with a melting point of 236 to 238 °C.

In the case of `CC(C)(C#N)C(=O)O`, the melting point was in the range of 54 to 56 °C.

For `COc1ccc(C(=O)NCC(=O)O)cc1OC`, the melting point was in the range of 198 to 200 °C.

For `Cc1ccc(C=CC(=O)O)o1`, the melting point was 118 to 120 °C.

Consider `CC1(NC(=O)c2ccnc(F)c2)CCCC1`, for which the melting point lay within 78 to 80 °C.

`CCC(C)(C)C1CCc2c(sc(NC(=O)CCl)c2C#N)C1` (stereo unspecified): the melting point was in the range of 100 to 102 °C.

Take `CCCNC(=O)Nc1ccc(CC(=O)O)cc1`: the melting point was 174 to 176 °C.

Regarding `CCc1nnc(NC(=O)CCl)s1`, the melting point lay in the range of 101 to 103 °C.

In turn, `COc1ccc(CNC(=O)CCl)cc1C(=O)O` registered a melting point of 133 to 135 °C.

With `CCOC(=O)Nc1ccc(N)cc1C#N`, the melting point fell in the range of 166 to 168 °C.

`CC(C)Cc1ccc(CCC(=O)O)cc1`: the melting point is 64 to 66 °C.

`O=Cc1c[nH]nc1-c1cccc(Cl)c1` had a melting point of 139 to 141 °C.

Turning to `Cc1cc(N)n(N)c(=O)c1`, the melting point was 193 to 195 °C.

Consider `Cc1ccccc1-n1ccnc1S`, for which the melting point fell in the range of 245 to 247 °C.

`CCn1nnnc1-c1cccc(N)c1` registered a melting point of 118 to 120 °C.

`Cc1sc2nc(CN3CCCCC3)nc(Cl)c2c1C` showed a melting point of 61 to 63 °C.

In turn, `CCn1cc(N)c(=O)c(Br)c1` came in with a melting point of 116 to 118 °C.

`CN(CCC(N)=S)C(=O)OC(C)(C)C` registered a melting point of 79 to 81 °C.

With `CC(CC(=O)O)C(=O)c1cccc(F)c1` (stereo unspecified), the melting point was in the range of 59 to 61 °C.

In turn, `Nc1ccc(NC(=O)c2ccccc2F)cc1C(F)(F)F` gave a melting point of 124 to 126 °C.

On to `CC(Oc1cccc(O)c1)C(N)=O` (stereo unspecified), for which the melting point is 129 to 131 °C.

The compound `Cc1ccc(-c2ccsc2C(=O)NN)cc1` registered a melting point of 270 to 273 °C.

For the compound `CC(=O)N1CCN(CC#N)CC1`, the melting point lay in the range of 107 to 109 °C.

`O=C(O)C(CO)NS(=O)(=O)c1ccc(Cl)cc1` (stereo unspecified) came in with a melting point of 206 to 208 °C.

`CC(C)(C)OC(=O)N1CCN(c2nnc(N)[nH]2)CC1` displayed a melting point of 178 to 180 °C.

For `Cc1cccc(C2(C(=O)O)CCCC2)c1`, the melting point fell in the range of 156 to 158 °C.

As for `O=C(O)C(c1ccccc1)C1CC1` (stereo unspecified), the melting point is 84 to 86 °C.

Take `CCNC(=S)n1ncc(C(=O)OCC)c1N`: the melting point is 92 to 96 °C.

Compound `CCCCc1ccc(Nc2nnc(S)s2)cc1` had a melting point of 124 to 126 °C.

Consider `O=c1[nH]c(=O)n(Cc2ccccc2)c2ncn(C3CCCC3)c12`, for which the melting point fell in the range of 252 to 254 °C.

`O=C(O)CNC(=O)C12CC3CC(CC(C3)C1)C2` yielded a melting point of 145 to 147 °C.

`COc1ccc(CNc2ccc3[nH]c(=O)[nH]c3c2)cc1` gave a melting point of 254 to 256 °C.

Take `Nc1nc2c(s1)CC(c1ccccc1)CC2` (stereo unspecified): the melting point was in the range of 181 to 183 °C.

Turning to `O=C1C=CC(=O)N1C1CC1`, the melting point was 54 to 56 °C.

`CON(C)S(=O)(=O)c1cccc(C(=O)O)c1` displayed a melting point of 134 to 138 °C.

As to `CC(Cl)C(=O)Nc1cccc(S(=O)(=O)N2CCCCC2)c1` (stereo unspecified), the melting point lay within 163 to 165 °C.

Compound `O=Cc1c(-c2ccccc2)nc2ccccn12` gave a melting point of 144 to 146 °C.

`COc1ccc(OC)c2[nH]c(C(=O)O)cc12` returned a melting point of 201 to 203 °C.

With `Cc1cc(C(=O)O)ccc1S(N)(=O)=O`, the melting point is 255 to 257 °C.

`NC(=O)NCc1cccnc1`: the melting point lay within 182 to 184 °C.

Turning to `Cn1cc(CC(=O)O)cn1`, the melting point was 121 to 123 °C.

Consider `CC(C)(C)c1ncc(C(=O)O)s1`, for which the melting point lay in the range of 204 to 206 °C.

`CSCc1nc2ccccc2n1CC(=O)O` registered a melting point of 221 to 225 °C.

The compound `Cn1ccc(N2CCCC(N)C2=O)n1` (stereo unspecified) returned a melting point of 79 to 81 °C.

`Cc1cc(C=O)c(C)n1-c1ccc(F)cc1`: the melting point lay within 100 to 102 °C.

As to `O=C(CCl)Nc1cc(Cl)ccc1C(=O)O`, the melting point lay in the range of 152 to 154 °C.

`CC(=O)c1ccc2c(c1)C(C)(C)C(=O)N2`: the melting point lay within 187 to 189 °C.

`COc1cc(C=O)c([N+](=O)[O-])cc1OCC(F)(F)F` came in with a melting point of 150 to 152 °C.

As to `Cc1ccc(NC(=O)CCl)cc1Br`, the melting point is 180 to 181 °C.

`O=C(CCl)NC1CCCC1` displayed a melting point of 73 to 75 °C.

The compound `CC(C)OC(=O)NNC(=O)CCl` registered a melting point of 100 to 102 °C.

`O=C1CC2(CCCCC2)C(=O)N1` registered a melting point of 132 to 140 °C.

Take `N#Cc1ccnc(-n2cncn2)c1`: the melting point was 149 to 151 °C.

Compound `O=c1[nH]c(-c2cccnc2)no1` yielded a melting point of 234 to 236 °C.

In turn, `Cc1ccc(C#N)cc1S(N)(=O)=O` displayed a melting point of 194 to 196 °C.

Compound `CCCCc1ccnc(N)n1` registered a melting point of 99 to 101 °C.

`Nc1cccc(-n2ccc(C(=O)O)n2)c1` came in with a melting point of 249 to 251 °C.

Compound `CC(=O)c1cn(C)nc1C` had a melting point of 72 to 74 °C.

On to `Cc1cc(C)n2nc(C(=O)O)nc2n1`, for which the melting point was 178 to 180 °C.
